Values joined by “and” are separate entries in the source; they are usually repeats but may differ in a detail not shown here. Equal values may be shown once. Toxic doses and inconclusive results are not listed. The calls were made as follows: active = survival T/C of 150% or more; inactive = T/C below 125% in these data.
System: P388 leukemia ip, CD2F1 mice, survival T/C
Test: NCI In Vivo Anticancer Drug Screen. Data for tumor model P388 Leukemia (intraperitoneal) in CD2F1 (CDF1) mice
Details: endpoint: median survival time, higher = longer survival
How it was run: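 Mice carrying the transplanted tumor received test compound or vehicle. Survival was recorded in each group, and the value is the treated-group measurement divided by that of the vehicle-treated control group.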

[1] = dose: 50.0 mg/kg/injection, schedule: Q01DX005 (ip), vehicle: saline
[2] = dose: 100.0 mg/kg/injection, schedule: Q01DX005 (ip), vehicle: saline

Measured: T/C

COc1cc(NCc2ccc3nc(N)nc(N)c3c2C)cc(OC)c1OC (tested in a mixture with another compound)
inactive: dose: 6.25 mg/kg/injection, schedule: Q03HX008 (sc), vehicle: water 114 % of control | dose: 6.9 mg/kg/injection, schedule: Q01DX009 (oral), vehicle: water 119 % of control | dose: 12.5 mg/kg/injection, schedule: Q03HX008 (sc), vehicle: water 118 % of control | dose: 25.0 mg/kg/injection, schedule: Q01DX005 (sc), vehicle: water 118 % of control | dose: 25.0 mg/kg/injection, schedule: Q03HX008 (sc), vehicle: water 123 % of control | dose: 41.6 mg/kg/injection, schedule: Q03HX024 (ip), vehicle: water 103 % of control | dose: 62.5 mg/kg/injection, schedule: Q01DX001 (ip), vehicle: water 109 % of control | dose: 62.5 mg/kg/injection, schedule: Q01DX001 (iv), vehicle: water 117 % of control | dose: 111.1 mg/kg/injection, schedule: Q01DX009 (oral), vehicle: water 98 % of control | dose: 125.0 mg/kg/injection, schedule: Q01DX001 (ip), vehicle: water 115 % of control | dose: 200.0 mg/kg/injection, schedule: Q01DX005 (sc), vehicle: water 95 % of control | dose: 50.0 micrograms per hour, schedule: Q#X X024 (sc), vehicle: water 120 % of control | dose: 50.0 micrograms per hour, schedule: Q#X X048 (sc), vehicle: water 123 % of control | dose: 70.0 micrograms per hour, schedule: Q#X X006 (iv), vehicle: water 112 % of control | dose: 85.0 micrograms per hour, schedule: Q#X X006 (iv), vehicle: water 121 % of control | dose: 100.0 micrograms per hour, schedule: Q#X X024 (sc), vehicle: water 118 % of control | dose: 100.0 micrograms per hour, schedule: Q#X X120 (sc), vehicle: water 112 % of control | dose: 200.0 micrograms per hour, schedule: Q#X X120 (sc), vehicle: water 94 % of control
active: dose: 2.6 mg/kg/injection, schedule: Q03HX024 (ip), vehicle: water 166 % of control | dose: 5.0 mg/kg/injection, schedule: Q03HX024 (ip), vehicle: water 182 % of control | dose: 5.2 mg/kg/injection, schedule: Q03HX024 (ip), vehicle: water 192 % of control | dose: 10.0 mg/kg/injection, schedule: Q03HX024 (ip), vehicle: water 201 % of control | dose: 10.4 mg/kg/injection, schedule: Q03HX024 (ip), vehicle: water 217 % of control | dose: 13.8 mg/kg/injection, schedule: Q01DX009 (ip), vehicle: water 175 % of control | dose: 13.8 mg/kg/injection, schedule: Q01DX009 (oral), vehicle: water 156 % of control | dose: 20.0 mg/kg/injection, schedule: Q03HX024 (ip), vehicle: water 230 % of control | dose: 20.8 mg/kg/injection, schedule: Q03HX024 (ip), vehicle: water 233 % of control | dose: 25.0 mg/kg/injection, schedule: Q01DX005 (ip), vehicle: water 153 % of control and 154 % of control | dose: 27.7 mg/kg/injection, schedule: Q01DX009 (ip), vehicle: water 185 % of control | dose: 27.7 mg/kg/injection, schedule: Q01DX009 (oral), vehicle: water 163 % of control | dose: 40.0 mg/kg/injection, schedule: Q03HX024 (ip), vehicle: water 223 % of control | dose: 50.0 mg/kg/injection, schedule: Q01DX005 (ip), vehicle: water 150 % of control and 160 % of control | dose: 50.0 mg/kg/injection, schedule: Q01DX005 (iv), vehicle: water 166 % of control | dose: 55.5 mg/kg/injection, schedule: Q01DX009 (ip), vehicle: water 208 % of control | dose: 55.5 mg/kg/injection, schedule: Q01DX009 (oral), vehicle: water 211 % of control | dose: 75.0 mg/kg/injection, schedule: Q03HX008 (sc), vehicle: water 163 % of control | dose: 100.0 mg/kg/injection, schedule: Q01DX005 (ip), vehicle: water 155 % of control and 173 % of control | dose: 100.0 mg/kg/injection, schedule: Q01DX005 (sc), vehicle: water 163 % of control | dose: 50.0 micrograms per hour, schedule: Q#X X072 (sc), vehicle: water 163 % of control | dose: 200.0 micrograms per hour, schedule: Q#X X072 (sc), vehicle: water 181 % of control

Nc1ccc(Br)cc1C(=O)c1ccccc1
inactive: dose: 12.5 mg/kg/injection, schedule: Q01DX009 (ip), vehicle: saline with Tween-80 97 % of control | dose: 25.0 mg/kg/injection, schedule: Q01DX009 (ip), vehicle: saline with Tween-80 94 % of control | dose: 50.0 mg/kg/injection, schedule: Q01DX009 (ip), vehicle: saline with Tween-80 94 % of control | dose: 50.0 mg/kg/injection, schedule: Q01DX009 (ip), vehicle: saline 87 % of control | dose: 100.0 mg/kg/injection, schedule: Q01DX009 (ip), vehicle: saline 89 % of control | dose: 200.0 mg/kg/injection, schedule: Q01DX009 (ip), vehicle: saline 116 % of control

C[S+]1CCC(C(=O)[O-])N1 (centres undefined)
inactive: [1] 101 % of control | [2] 98 % of control | dose: 200.0 mg/kg/injection, schedule: Q01DX005 (ip), vehicle: saline 98 % of control

CCC(C)OC(=S)SSC(=S)OC(C)CC (centres undefined)
inactive: dose: 25.0 mg/kg/injection, schedule: Q01DX009 (ip), vehicle: suspension in saline 105 % of control | dose: 50.0 mg/kg/injection, schedule: Q01DX009 (ip), vehicle: suspension in saline 96 % of control | dose: 100.0 mg/kg/injection, schedule: Q01DX009 (ip), vehicle: suspension in saline 98 % of control | dose: 200.0 mg/kg/injection, schedule: Q01DX009 (ip), vehicle: suspension in saline 109 % of control

CC1N2CCc3ccccc3C2C2c3ccccc3CCN21 (centres undefined)
inactive: dose: 12.5 mg/kg/injection, schedule: Q01DX001 (ip), vehicle: suspension in saline 111 % of control | dose: 25.0 mg/kg/injection, schedule: Q01DX001 (ip), vehicle: suspension in saline 111 % of control | dose: 50.0 mg/kg/injection, schedule: Q01DX001 (ip), vehicle: suspension in saline 102 % of control and 118 % of control

O=P(O)(O)SP(=O)(O)O.[Zn+2]
inactive: dose: 100.0 mg/kg/injection, schedule: Q04DX003 (ip), vehicle: Klucel (hydroxypropylcellulose) (HPC) 101 % of control | dose: 200.0 mg/kg/injection, schedule: Q04DX003 (ip), vehicle: Klucel (hydroxypropylcellulose) (HPC) 105 % of control

O=C(Nc1cccc(Br)c1)Oc1ccc(Cl)c2cccnc12
inactive: dose: 7.5 mg/kg/injection, schedule: Q01DX005 (ip), vehicle: saline with Tween-80 107 % of control | dose: 15.0 mg/kg/injection, schedule: Q01DX005 (ip), vehicle: saline with Tween-80 103 % of control | dose: 30.0 mg/kg/injection, schedule: Q01DX005 (ip), vehicle: saline with Tween-80 103 % of control and 91 % of control | dose: 60.0 mg/kg/injection, schedule: Q01DX005 (ip), vehicle: saline with Tween-80 100 % of control and 111 % of control | dose: 240.0 mg/kg/injection, schedule: Q01DX005 (ip), vehicle: saline with Tween-80 88 % of control

CCN(CC)CC(CN(CC)CC)N(CCO)CC(C)C
inactive: [1] 93 % of control | [2] 100 % of control

Brc1cc(Br)c2ccccc2c1OCC1CO1 (centres undefined)
inactive: dose: 12.5 mg/kg/injection, schedule: Q01DX009 (ip), vehicle: Klucel (hydroxypropylcellulose) (HPC) 106 % of control and 95 % of control | dose: 25.0 mg/kg/injection, schedule: Q01DX009 (ip), vehicle: Klucel (hydroxypropylcellulose) (HPC) 106 % of control | dose: 50.0 mg/kg/injection, schedule: Q01DX009 (ip), vehicle: Klucel (hydroxypropylcellulose) (HPC) 88 % of control and 89 % of control and 95 % of control | dose: 200.0 mg/kg/injection, schedule: Q01DX009 (ip), vehicle: Klucel (hydroxypropylcellulose) (HPC) 91 % of control
